What was measured:
[1] = system: compound 48/80 ocular surface type-1 hypersensitivity; assay: Ocular Type-1 hypersensitivity in albino rats (topical 48/80 model); format: in vivo; conditions: FIG. 1; for magnitude of reduction in vascular leakage and Evans blue extravasation, UP4U versus reference controls: rats, 48/80, 2% UP4U, 0.05% levocabastine, 0.025% ketotifen, 0.1% olopatadine eye drops
Experimental: The rat model of ocular immediate (Type-1) hypersensitivity using topical compound 48/80 was used for testing anti-inflammatory drugs (Feinberg and Stokes, Int. Arch. Allergy Appl. Immunol. 82(3-4): 537-8. (1987)). The effects of levocabastine, ketotifen, and olopatadine, which are three approved drugs for the use of ocular surface inflammation, particularly allergic conjunctivitis, were assessed. UP4U was investigated for its effects on mitigating the clinical signs of compound 48/80 on ocular surface type-1 hypersensitivity. Ten albino rats per group were administered compound or vehicle four times daily for 3 days and twice on the fourth day (the last administration 2 h before challenge with 48/80). Comparison was made between the test substances, the test substances vehicle, the reference substance (0.05% levocabastine eye drops—Lévophta®; 0.025% ketotifen eyedrops—Zaditor®; and 0.1% olopatadine eyedrops—Patanol™), and negative control animals (untreated and unchallenged). Eye drops were instilled into the right conjunctival sac of each animal with test substances. […] The formulated compounds or vehicle were allowed to gradually run from the top to the bottom of the ocular surface. Efficacy was evaluated by measuring edema: clinical scores and extravasation of Evans blue dye (blood-eyelids and blood-eyeballs permeability indexes). The model has been previously validated (Khosravi, et al., Inflamm. Res. 44(1): 47-54 (1995)).

[2] = system: ocular active anaphylaxis with egg albumin as an antigen; assay: Ocular active anaphylaxis, guinea pig egg albumin model; format: in vivo, albino guinea pigs; conditions: FIG. 2; for magnitude of reduction on eyeballs, UP4U versus reference controls: guinea pigs, egg albumin, 2% UP4U, 0.05% levocabastine, 0.025% ketotifen, 0.1% olopatadine eye drops
Description: The guinea pig model of ocular active anaphylaxis with egg albumin as an antigen, serves as a testing system for anti-inflammatory and anti-allergic drugs (Yamaji, et al., Methods Find. Exp. Clin. Pharmacol. 19(9): 637-43 (1997)). The ocular effects of compounds and vehicle control were investigated using an experimentally-induced ocular active anaphylaxis in the guinea pig. Ten albino guinea pigs per group were sensitized with an intraperitoneal injection of egg albumin, followed 14 days later with a challenge by a single ocular instillation of egg albumin. Four times daily for 3 days and twice on the fourth day (the last one 2 h before challenge), test substances were instilled into the right conjunctival sac of the animals. The immune response was induced by immunization with egg albumin, and the ocular reaction was induced by ocular instillation of egg albumin, thereby causing the release of allergy mediators and ocular edema. Efficacy was evaluated by measuring edema: clinical scores and extravasation of Evans blue dye (blood-eyelids and blood-eyeballs permeability indexes). Comparison was made between the test substances, the test substances vehicle, the reference substance (0.05% levocabastine eye drops—Lévophta®; 0.025% ketotifen eyedrops—Zaditor®; and 0.1% olopatadine eyedrops—Patanol™), and negative control animals (untreated and unchallenged). The model was previously validated (Khosravi, et al., Inflamm. Res. 44(1): 47-54 (1995)).

[3] = system: mucociliary clearance of nasal tissue; assay: Nasal spray saccharin transport time (STT) test; format: in vivo, humans; conditions: for mean STT: pooled PAR and NR and across doses 5-80 mg/mL, single dose nasal spray, with outliers, (±SD); for STT mean (± SD): across all cohorts, NR and PAR groups pooled, without outliers (<1 minute or >30 minutes excluded)
Experimental: The speed with which the saccharin was transported this distance is a measure of mucociliary clearance.
Sixty subjects, 30 healthy non-rhinitic (NR) volunteers and 30 subjects with perennial allergic rhinitis (PAR), participated in a randomized, double-blind, single-center, 2-period crossover study evaluating escalating, single doses of a UP4dC nasal spray delivered as a non-preserved aqueous nasal spray. Each subject received a single dose (2 sprays in each nostril, 140 μL/spray) of UP4dC and placebo (0.9% w/v saline spray) on two treatment days in random order (crossover design). Five cohorts of 12 subjects received five concentration levels of UP4dC (5, 10, 20, 40, and 80 mg/mL) in ascending order. The STT was performed 5-minutes and 300-minutes post-dose on each treatment day on each subject (a saccharin particle was placed in the nose at 5 and 300 minutes post-dose and then time to taste was recorded).
Analyses were carried out excluding those STT values that were either too fast (<1 minute) or too slow (>30 minutes). Both of these scenarios are deemed as errors and are a likely result of the saccharin particle being inappropriately administered.

[4] = system: symptoms of perennial allergic rhinitis (PAR); assay: Perennial allergic rhinitis symptom study with nasal spray; format: in vivo, humans
Description: This example illustrates the efficacy of a U[…] nasal spray in reducing the symptoms of perennial allergic rhinitis (PAR) in humans. Patients with PAR suffer year-round from symptoms of allergic rhinitis because they are sensitized to allergens that are present in homes and the environment throughout the year, including dust mites, molds, and animal […] (dogs, cats, cockroaches, etc). Patients with PAR experience a constellation of nasal symptoms including nasal stuffiness/congestion, runny nose, post-nasal drip, sneezing and nasal itching. These symptoms were evaluated in pivotal efficacy trials as the total nasal symptom score (TNSS) as well as by evaluating each individual symptom, including the non-nasal symptoms of facial pain/pressure and cough. Patients rated each individual symptom on a scale from 0 (none) to 3 (severe) twice daily, reflecting their symptoms upon awakening (AM) and throughout the day (PM). Fifty-nine subjects with a documented history of PAR participated in a randomized, double-blind, 3-center, parallel-group study. […] Study medication was delivered twice daily as a non-preserved aqueous nasal spray as 2 sprays (100 μL in each spray) in each nostril. […] This was most notable for the 10 mg/ml U[…] group. Comparisons of pooled active versus placebo TNSS scores approached statistical significance for AM scores (p=0.139). Table 3 indicates the symptom and dose combinations that provided statistically significant reductions (p≦0.05) compared with placebo on any day during the 6-day treatment period. Conversely, significant symptom reductions in favor of placebo were observed on one day (PM sneezing, Day 2).

[5] = 5 mg/mL, 6-day treatment period
[6] = 10 mg/mL, 6-day treatment period
[7] = 40 mg/mL, 6-day treatment period

## CN(C)CC/C=C1/c2ccccc2COc2ccc(CC(=O)O)cc21 [olopatadine, reference compound]
[1]
  magnitude of reduction in vascular leakage and Evans blue extravasation, UP4U versus reference controls: comparable
[2]
  magnitude of reduction on eyeballs, UP4U versus reference controls: comparable

## O=c1ccn([C@@H]2O[C@H](COP(=O)(O)OP(=O)(O)OP(=O)(O)OP(=O)(O)OC[C@H]3O[C@@H](n4ccc(=O)[nH]c4=O)[C@H](O)[C@@H]3O)[C@@H](O)[C@H]2O)c(=O)[nH]1 [UP4U, P^1,P^4-di(uridine 5′-)tetraphosphate]
[1]; rats treated with 48/80 on the ocular surface, 2% UP4U eye drops four times daily for 3 days and twice on the fourth day
  vascular leakage and Evans blue extravasation on eyelids and eyeballs: reduced
[1]
  magnitude of reduction in vascular leakage and Evans blue extravasation, UP4U versus reference controls: comparable
[2]; guinea pigs challenged with egg albumin, 2% UP4U eye drops four times daily for 3 days and twice on the fourth day
  vascular leakage and Evans blue extravasation on eyeballs: reduced
[2]
  magnitude of reduction on eyeballs, UP4U versus reference controls: comparable

## C[C@@H]1CN([C@H]2CC[C@](C#N)(c3ccc(F)cc3)CC2)CC[C@]1(C(=O)O)c1ccccc1 [levocabastine, reference compound]
[1]
  magnitude of reduction in vascular leakage and Evans blue extravasation, UP4U versus reference controls: comparable
[2]
  magnitude of reduction on eyeballs, UP4U versus reference controls: comparable

## CN1CCC(=C2c3ccccc3CC(=O)c3sccc32)CC1 [ketotifen, reference compound]
[1]
  magnitude of reduction in vascular leakage and Evans blue extravasation, UP4U versus reference controls: comparable
[2]
  magnitude of reduction on eyeballs, UP4U versus reference controls: comparable

## Nc1ccn([C@H]2C[C@H](O)[C@@H](COP(=O)(O)OP(=O)(O)OP(=O)(O)OP(=O)(O)OC[C@H]3O[C@@H](n4ccc(=O)[nH]c4=O)[C@H](O)[C@@H]3O)O2)c(=O)n1 [UP4dC, P^1-(2′-deoxycytidine 5′)-P^4-(uridine 5′-)tetraphosphate]
[3]; 5-hour (300-minute) post-dose assessment
  mean STT: 9.58 (±10.30) minutes
[3]; 5-minute post-dose assessment
  mean STT: 7.04 (±6.06) minutes
[3]; 5 minute
  STT mean (± SD): 6.89 (5.36) minutes
[3]; 300 minute
  STT mean (± SD): 8.41 (5.79) minutes
[3]; UP4dC nasal spray, single dose, humans
  time elapsed before the saccharin was tasted compared to placebo: shorten
[4]; [5]
  days with statistically significant reductions (p≦0.05) compared with placebo: Nasal blockage/stuffiness: AM-Day 4
  days with statistically significant reductions (p≦0.05) compared with placebo: Post-nasal drip: AM-Days 4 and 6
[4]; [6]
  days with statistically significant reductions (p≦0.05) compared with placebo: Nasal blockage/stuffiness: AM-Day 5
  days with statistically significant reductions (p≦0.05) compared with placebo: Post-nasal drip: AM-Days 5 and 6
  days with statistically significant reductions (p≦0.05) compared with placebo: Rhinorrhea: PM-Day 5
  days with statistically significant reductions (p≦0.05) compared with placebo: Total Symptom Score: AM-Days 5 and 6
[4]; [7]
  days with statistically significant reductions (p≦0.05) compared with placebo: Itching: AM-Day 3
  days with statistically significant reductions (p≦0.05) compared with placebo: TNSS: AM-Day 3
  days with statistically significant reductions (p≦0.05) compared with placebo: Total Symptom Score: PM-Day 5
[4]; AM (0–15 scale), 5 mg/mL nasal spray twice daily
  change from the placebo run-in period in TNSS averaged over the entire 6-day treatment period: −0.96 (2.08)
[4]; AM (0–15 scale), 10 mg/mL nasal spray twice daily
  change from the placebo run-in period in TNSS averaged over the entire 6-day treatment period: −1.20 (2.00)
[4]; AM (0–15 scale), 40 mg/mL nasal spray twice daily
  change from the placebo run-in period in TNSS averaged over the entire 6-day treatment period: −1.14 (2.02)
[4]; AM + PM (0–30 scale), 5 mg/mL nasal spray twice daily
  change from the placebo run-in period in TNSS averaged over the entire 6-day treatment period: −2.02 (4.31)
[4]; AM + PM (0–30 scale), 10 mg/mL nasal spray twice daily
  change from the placebo run-in period in TNSS averaged over the entire 6-day treatment period: −2.59 (4.50)
[4]; AM + PM (0–30 scale), 40 mg/mL nasal spray twice daily
  change from the placebo run-in period in TNSS averaged over the entire 6-day treatment period: −2.09 (3.99)
[4]; PM (0–15 scale), 5 mg/mL nasal spray twice daily
  change from the placebo run-in period in TNSS averaged over the entire 6-day treatment period: −0.94 (2.07)
[4]; PM (0–15 scale), 10 mg/mL nasal spray twice daily
  change from the placebo run-in period in TNSS averaged over the entire 6-day treatment period: −1.26 (2.46)
[4]; PM (0–15 scale), 40 mg/mL nasal spray twice daily
  change from the placebo run-in period in TNSS averaged over the entire 6-day treatment period: −1.01 (2.55)
[4]; active treatment groups 5, 10, 40 mg/mL, not statistically significant versus placebo
  reductions in TNSS compared with placebo for AM, PM, and AM+PM analyses: consistently greater reductions

Reference: US7256183B2, “Method for treating or preventing inflammatory diseases” (Inspire Pharmaceuticals, Inc., priority 2001, dated 2007)
